#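 Interpolation was linear, between the two tested concentrations surrounding the appropriate level; five concentrations were tested over 48 hours in 96-well plates. TGI: total growth inhibition.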
# Legend:
# Test in all cases: growth of human tumour cells (NCI), 48 h
# A549 NSCLC = test system: A549 NSCLC
# CAKI-1 renal = test system: CAKI-1 renal
# DU-145 prostate = test system: DU-145 prostate
# HCC-2998 colon = test system: HCC-2998 colon
# HL-60(TB) leukemia = test system: HL-60(TB) leukemia
# HOP-62 NSCLC = test system: HOP-62 NSCLC
# HOP-92 NSCLC = test system: HOP-92 NSCLC
# HS 578T breast = test system: HS 578T breast
# LOX IMVI melanoma = test system: LOX IMVI melanoma
# M14 melanoma = test system: M14 melanoma
# MALME-3M melanoma = test system: MALME-3M melanoma
# MDA-N = test system: MDA-N
# OVCAR-3 ovarian = test system: OVCAR-3 ovarian
# RXF 393 renal = test system: RXF 393 renal
# SK-MEL-28 melanoma = test system: SK-MEL-28 melanoma
# SN12C renal = test system: SN12C renal
# SNB-75 CNS = test system: SNB-75 CNS
# SW-620 colon = test system: SW-620 colon
# T-47D breast = test system: T-47D breast
# UACC-257 melanoma = test system: UACC-257 melanoma
compound,measurement,setting,value
CC(CO)CCNc1ncnc2c1ncn2CCC(=O)OC(C)(C)C (stereo not given),TGI,A549 NSCLC,> 100 µM
same,TGI,CAKI-1 renal,> 100 µM
same,TGI,DU-145 prostate,> 100 µM
same,TGI,HCC-2998 colon,> 100 µM
same,TGI,HL-60(TB) leukemia,> 100 µM
same,TGI,HOP-62 NSCLC,> 100 µM
same,TGI,HOP-92 NSCLC,> 100 µM
same,TGI,HS 578T breast,> 100 µM
same,TGI,LOX IMVI melanoma,> 100 µM
same,TGI,M14 melanoma,> 100 µM
same,TGI,MALME-3M melanoma,> 100 µM
same,TGI,MDA-N,> 100 µM
same,TGI,OVCAR-3 ovarian,> 100 µM
same,TGI,RXF 393 renal,> 100 µM
same,TGI,SK-MEL-28 melanoma,> 100 µM
same,TGI,SN12C renal,> 100 µM
same,TGI,SNB-75 CNS,> 100 µM
same,TGI,SW-620 colon,> 100 µM
same,TGI,T-47D breast,> 100 µM
same,TGI,UACC-257 melanoma,> 100 µM
CCCCCCCCCCCCC/C=C/[C@@H](O)[C@H](COC1OC(CO)C(OC2OC(CO)C(O)C(OC3(C(=O)O)CC(O)C(NC(C)=O)C(C(O)C(O)CO)O3)C2O)C(O)C1O)N=[N+]=[N-] (stereo not given in full),TGI,A549 NSCLC,> 100 µM
same,TGI,CAKI-1 renal,> 100 µM
same,TGI,DU-145 prostate,> 100 µM
same,TGI,HCC-2998 colon,> 100 µM
same,TGI,HL-60(TB) leukemia,80.8 µM
same,TGI,HOP-62 NSCLC,46.2 µM
same,TGI,HOP-92 NSCLC,> 100 µM
same,TGI,HS 578T breast,> 100 µM
same,TGI,LOX IMVI melanoma,36.6 µM
same,TGI,M14 melanoma,34.3 µM
same,TGI,MALME-3M melanoma,55.5 µM
same,TGI,MDA-N,> 100 µM
same,TGI,OVCAR-3 ovarian,> 100 µM
same,TGI,RXF 393 renal,48.8 µM
same,TGI,SK-MEL-28 melanoma,60.5 µM
same,TGI,SN12C renal,> 100 µM
same,TGI,SNB-75 CNS,37.1 µM
same,TGI,SW-620 colon,61.7 µM
same,TGI,T-47D breast,> 100 µM
same,TGI,UACC-257 melanoma,> 100 µM
O=C(Nc1nncs1)NS(=O)(=O)n1c(=S)sc2ccccc21,TGI,A549 NSCLC,> 100 µM
same,TGI,CAKI-1 renal,> 100 µM
same,TGI,DU-145 prostate,> 100 µM
same,TGI,HCC-2998 colon,> 100 µM
same,TGI,HL-60(TB) leukemia,> 100 µM
same,TGI,HOP-62 NSCLC,> 100 µM
same,TGI,HOP-92 NSCLC,> 100 µM
same,TGI,HS 578T breast,> 100 µM
same,TGI,LOX IMVI melanoma,> 100 µM
same,TGI,M14 melanoma,> 100 µM
same,TGI,MALME-3M melanoma,> 100 µM
same,TGI,MDA-N,> 100 µM
same,TGI,OVCAR-3 ovarian,> 100 µM
same,TGI,RXF 393 renal,> 100 µM
same,TGI,SK-MEL-28 melanoma,> 100 µM
same,TGI,SN12C renal,> 100 µM
same,TGI,SNB-75 CNS,> 100 µM
same,TGI,SW-620 colon,> 100 µM
same,TGI,T-47D breast,> 100 µM
same,TGI,UACC-257 melanoma,> 100 µM
Cc1c(C)n(-c2ccccc2)c2nc(S(C)(=O)=O)nc(S(C)(=O)=O)c12,TGI,A549 NSCLC,30.4 µM
same,TGI,CAKI-1 renal,1.55 µM
same,TGI,DU-145 prostate,27.7 µM
same,TGI,HCC-2998 colon,41.2 µM
same,TGI,HL-60(TB) leukemia,3.35 µM
same,TGI,HOP-62 NSCLC,33.2 µM
same,TGI,HOP-92 NSCLC,3.2 µM
same,TGI,HS 578T breast,> 85.5 µM
same,TGI,LOX IMVI melanoma,3.43 µM
same,TGI,M14 melanoma,3.1 µM
same,TGI,MALME-3M melanoma,2.92 µM
same,TGI,MDA-N,3.43 µM
same,TGI,OVCAR-3 ovarian,3.02 µM
same,TGI,RXF 393 renal,2.75 µM
same,TGI,SK-MEL-28 melanoma,6.73 µM
same,TGI,SN12C renal,33.8 µM
same,TGI,SNB-75 CNS,34.5 µM
same,TGI,SW-620 colon,2.9 µM
same,TGI,T-47D breast,5.52 µM
same,TGI,UACC-257 melanoma,3.16 µM
